Results from paper PMC5342726, “Identification of small molecule inhibitors of ERCC1-XPF that inhibit DNA repair and potentiate cisplatin efficacy in cancer cells” (Oncotarget, 2016).

Tests used:
H460 cells = assay: Cisplatin interstrand crosslink repair by comet assay; type: cell-based; conditions: compound 15 μM 2 h then cisplatin at IC90; 0-72 h
Method: (B) After treatment, comet assay was performed as described at different time intervals (0, 24, 48 and 72 h). The percentage of interstrand crosslinks remaining was calculated using olive tail moment. Results are represented as mean ± SEM of three independent experiments.
The data is expressed as the percentage of crosslinks remaining at the time points assessed.
Cells were treated with compound (Hit control (9:1 DMSO-glycerol). After incubation at 37°C 1 or Hit 2) and cisplatin or just cisplatin alone in serum for 30 minutes, 2 μL of the pre-incubate was diluted into a free media. […] Cells were further treated with 100 μM
Cells were then trypsinized, pelleted and resuspended in 1% low melting point agarose.

XPG = biological target: T1, XPG (Homo sapiens, UniProt P28715); assay: Secondary screen, fluorescence assay with XPG endonuclease; type: biochemical; conditions: compound titration in the HTS assay
T1 sequence (P28715 1-1186): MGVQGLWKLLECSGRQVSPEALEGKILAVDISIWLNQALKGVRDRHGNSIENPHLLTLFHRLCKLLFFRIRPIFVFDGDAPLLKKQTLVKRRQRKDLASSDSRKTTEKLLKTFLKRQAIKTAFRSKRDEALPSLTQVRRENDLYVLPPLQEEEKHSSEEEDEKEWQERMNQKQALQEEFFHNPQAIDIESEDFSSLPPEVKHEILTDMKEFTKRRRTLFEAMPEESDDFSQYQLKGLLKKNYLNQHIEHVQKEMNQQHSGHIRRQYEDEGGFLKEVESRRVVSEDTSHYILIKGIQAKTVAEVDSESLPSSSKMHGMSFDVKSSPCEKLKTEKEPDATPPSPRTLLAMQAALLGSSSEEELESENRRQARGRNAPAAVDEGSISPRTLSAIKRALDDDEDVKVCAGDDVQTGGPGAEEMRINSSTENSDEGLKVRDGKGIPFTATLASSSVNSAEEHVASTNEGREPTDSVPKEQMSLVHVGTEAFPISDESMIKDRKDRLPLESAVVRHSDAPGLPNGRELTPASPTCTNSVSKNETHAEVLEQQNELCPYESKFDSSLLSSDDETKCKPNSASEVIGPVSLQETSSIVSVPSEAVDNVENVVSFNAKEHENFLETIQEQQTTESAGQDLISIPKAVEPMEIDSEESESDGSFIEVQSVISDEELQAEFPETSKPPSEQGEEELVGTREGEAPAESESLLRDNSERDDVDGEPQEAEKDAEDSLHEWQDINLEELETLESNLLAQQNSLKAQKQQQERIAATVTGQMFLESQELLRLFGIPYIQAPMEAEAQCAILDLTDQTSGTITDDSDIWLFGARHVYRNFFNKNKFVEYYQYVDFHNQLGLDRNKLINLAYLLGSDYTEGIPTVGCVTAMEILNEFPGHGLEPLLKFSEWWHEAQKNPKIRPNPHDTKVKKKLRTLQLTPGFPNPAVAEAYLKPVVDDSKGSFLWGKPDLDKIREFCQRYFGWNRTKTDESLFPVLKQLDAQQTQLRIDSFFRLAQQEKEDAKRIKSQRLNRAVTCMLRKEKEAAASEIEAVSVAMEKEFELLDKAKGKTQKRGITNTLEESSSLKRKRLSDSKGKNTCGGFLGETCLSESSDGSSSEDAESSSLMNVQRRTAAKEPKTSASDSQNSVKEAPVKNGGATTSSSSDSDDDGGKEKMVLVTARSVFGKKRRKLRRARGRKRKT

HhaI [1] = assay: Gel-based nuclease assay, HhaI; type: biochemical; conditions: compound titration
HhaI [2] = assay: Secondary screen, fluorescence assay with HhaI endonuclease; type: biochemical; conditions: compound titration in the HTS assay

In the case of Oc1cc(O)c2c(c1)OC(c1ccc(O)c(O)c1)C(O)C2c1c(O)cc(O)c2c1OC(c1ccc(O)c(O)c1)C(O)C2 (centres unmarked) [NSC143099], the “effect on ICL repair” value (H460 cells) is reported as “ICL repair was significantly reduced”, the “effect on XPG activity” value (XPG) is reported as “some effect on XPG activity at higher concentrations” and the “inhibition of HhaI nuclease activity, gel-based assay” value (HhaI [1]) is reported as “does not inhibit the nuclease activity”. The “effect on HhaI activity” value (HhaI [2]) was “no effect on HhaI activity”.

For Cc1ccc(S(=O)(=O)Oc2cc(S(=O)(=O)O)cc3cc(S(=O)(=O)O)cc(N)c23)cc1 [NSC16168], the “effect on ICL repair” value (H460 cells) was “does not have any effect on ICL repair”, the “effect on XPG activity” value (XPG) was “no effect” and the “inhibition of HhaI nuclease activity, gel-based assay” value (HhaI [1]) was “does not inhibit the nuclease activity”. For the same compound, the “effect on HhaI activity” value (HhaI [2]) was “no effect”.
